Assay results as given in ChEMBL document CHEMBL1146932, “A series of 23,24-dihydrodiscodermolide analogues with simplified lactone regions” (2006).

Assays:
Format in all cases: functional
Conditions in all cases: Homo sapiens
NCI/ADR-RES = assay: Antiproliferative activity against NCI/ADR cell line
A549 [1] = assay: Antiproliferative activity against A549 cell line
MCF7 = assay: Antiproliferative activity against MCF7 cell line
A549 [2] = assay: Antiproliferative activity against A549t12 cell line
CCRF-CEM [3] = assay: Antiproliferative activity against resistant CCRF-CEM/PTX cell line
CCRF-CEM [4] = assay: Antiproliferative activity against resistant CCRF-CEM/VBL cell line
CCRF-CEM [5] = assay: Antiproliferative activity against CCRF-CEM cell line
CCRF-CEM [6] = assay: Antiproliferative activity against resistant CCRF-CEM/VP16 cell line

SMILES	GI50 (NCI/ADR-RES) [µM]	GI50 (A549 [1]) [µM]	GI50 (MCF7) [µM]	GI50 (A549 [2]) [µM]	GI50 (CCRF-CEM [3]) [µM]	GI50 (CCRF-CEM [4]) [µM]	GI50 (CCRF-CEM [5]) [µM]	GI50 (CCRF-CEM [6]) [µM]
CC/C=C\[C@H](C)[C@H](OC(N)=O)[C@@H](C)[C@H](O)[C@@H](C)C/C(C)=C\[C@H](C)[C@@H](O)[C@@H](C)/C=C\[C@@H](O)C[C@@H]1OC(=O)[C@H](C)[C@@H](O)[C@H]1C	0.19	0.007	0.0062					
CC/C=C\[C@H](C)[C@H](OC(N)=O)[C@@H](C)[C@H](O)[C@@H](C)C/C(C)=C\[C@H](C)[C@@H](O)[C@@H](C)/C=C\[C@H](O)C[C@@H]1CCC(=O)O1	10	4	2	10				
CC/C=C\[C@H](C)[C@H](OC(N)=O)[C@@H](C)[C@H](O)[C@@H](C)C/C(C)=C\[C@H](C)[C@@H](O)[C@@H](C)/C=C\[C@@H](O)C[C@@H]1OC(=O)[C@H](C)C[C@H]1C	0.14	0.011	0.0058	0.05	0.065	0.209	0.0086	0.012
CC/C=C\[C@H](C)[C@H](OC(N)=O)[C@@H](C)[C@H](O)[C@@H](C)C/C(C)=C\[C@H](C)[C@@H](O)[C@@H](C)/C=C\[C@@H](O)C[C@H](O)[C@H](C)CO	10	3	1	5				
CC/C=C\[C@H](C)[C@H](OC(N)=O)[C@@H](C)[C@H](O)[C@@H](C)C/C(C)=C\[C@H](C)[C@@H](O)[C@@H](C)/C=C\[C@@H](O)C[C@H]1CCC(=O)O1	0.73	0.046	0.0064	0.063	0.285	3.81	0.0065	0.0071
CC/C=C\[C@H](C)[C@H](OC(N)=O)[C@@H](C)[C@H](O)[C@@H](C)C/C(C)=C\[C@H](C)[C@@H](O)[C@@H](C)/C=C\[C@@H](O)C[C@@H]1OC(=O)NC[C@H]1C	10	0.52	0.11	1				
CC/C=C\[C@H](C)[C@H](OC(N)=O)[C@@H](C)[C@H](O)[C@@H](C)C/C(C)=C\[C@H](C)[C@@H](O)[C@@H](C)/C=C\[C@@H](O)C[C@H](O)[C@H](C)C[C@H](C)C(=O)OC	10	4	1	4				
CC/C=C\[C@H](C)[C@H](OC(N)=O)[C@@H](C)[C@H](O)[C@@H](C)C/C(C)=C\[C@H](C)[C@@H](O)[C@@H](C)/C=C\[C@@H](O)C[C@@H]1OC(=O)[C@H](C)[C@@H](OC)[C@H]1C	0.25	0.0065	0.0038	0.012	0.079	0.416	0.0044	0.0084
C=C/C=C\[C@H](C)[C@H](OC(N)=O)[C@@H](C)[C@H](O)[C@@H](C)C/C(C)=C\[C@H](C)[C@@H](O)[C@@H](C)/C=C\[C@@H](O)C[C@@H]1OC(=O)[C@H](C)[C@@H](O)[C@H]1C [DISERMOLIDE]	0.24	0.022	0.028	0.03	0.092	0.158	0.016	0.052
